Measured values from patent US4551479A, “Compounds with anti-convulsive properties” (Akzo N.V., priority 1983, dated 1985).
Where a name gives a salt, the structure may show the parent alone. Read-outs that look alike come from different tables or passages of the source.

Key:
[1] = Shuttle box (neurotoxicity and sedation); details: ip
[2] = system: Pentylenetetrazole (PTZ) cramp condition; test: PTZ (pentylenetetrazole) test (anti-convulsive properties); type: in vivo; details: ip, read-out: Anti-convulsive properties, PTZ test ED50 i.p.
Excerpt: ^(2) Pentylenetetrazole (i.e. PTZ) directly activates the nerve
endings, leading to a cramp condition.

tonic convulsion = test: Electroshock test (anti-convulsive properties); type: in vivo; details: ip, read-out: Anti-convulsive properties, Electroshock test ED200 i.p.
Excerpt: ^(1) The ED200 is the dose of the test compound (in mg/kg) which
necessitates a 100% increase of the current intensity to bring about a
tonic convulsion in 50% of the test animals.

[3] = Rotarod (neurotoxicity and sedation); details: ip
benzodiazepine receptors = test: Antagonism of anti-convulsive effect by benzodiazepine antagonist Ro 15-1788; type: in vivo; details: administration of Ro 15-1788

| Structure (SMILES) | TD50 [1] | ED50 [2] | ED200 (tonic convulsion) | TD50 [3] | Effect of benzodiazepine antagonist (Ro 15-1788) on the anti-convulsive effect (benzodiazepine receptors) | ED50 ([2]; pentylenetetrazole) | ED200 (tonic convulsion; dose necessitating a 100% increase of current intensity to bring about tonic convulsion in 50% of test animals) |
| --- | --- | --- | --- | --- | --- | --- | --- |
| CN(C)C1C2C=CCC1c1ccccc1C2 (stereo not drawn) | > 46 mg/kg | 10 mg/kg | 11 mg/kg | 70 mg/kg | – | – | – |
| CN1C(=O)CN=C(c2ccccc2)c2cc(Cl)ccc21 [diazepam] | – | 0.5 mg/kg | 14 mg/kg | – | completely counteracted | – | – |
| O=C1NC(=O)C(c2ccccc2)(c2ccccc2)N1 [diphenyl hydantoin] | 100 mg/kg | – | – | 100 mg/kg | – | 22 mg/kg | 15 mg/kg |
| CCCC(CCC)C(=O)O [sodium salt of valproic acid] | 350 mg/kg | 30 mg/kg | 180 mg/kg | 230 mg/kg | – | – | – |
